PMC10560236, “A protein kinase C α and β inhibitor blunts hyperphagia to halt renal function decline and reduces adiposity in a rat model of obesity-driven type 2 diabetes” (Scientific Reports, 2023)

Legend:
PKCα = PKCα (Homo sapiens, UniProt P17252); experiment: Z'-Lyte recombinant enzyme assay, PKCα; type: biochemical
Protocol: (§1) Half maximal inhibitory concentrations of Cmpd 1 were determined by Z’-Lyte biochemical assays (Life Technologies SelectScreen™ Kinase Profiling Services, Thermo Fisher Scientific). Kinome selectivity was determined at 1 μM Cmpd 1 concentration against a panel of 119 kinases. The original kinome tree in Fig. 1b was taken from Ref.[68].

ZSF1 obese rats = experiment: 7-day oral gavage study, food consumption and body weight; type: in vivo, rat; settings: 100 mpk daily oral gavage, 7 days
PKCβ1 = PKCβ1 (Homo sapiens, UniProt P05771); experiment: Z'-Lyte recombinant enzyme assay, PKCβ1; type: biochemical
Protocol: as §1

PKCη = PKCη (Homo sapiens, UniProt P24723); experiment: Z'-Lyte recombinant enzyme assay, PKCη; type: biochemical
Protocol: as §1

PKC family members = experiment: Selectivity within PKC family (enzymatic assays); type: biochemical; settings: PKC family members other than α, β, θ, γ
Protocol: as §1

[1] = system: HEK293 cells overexpressing PKCβ2; experiment: PMA-induced IL-8 production in HEK293 cells over-expressing PKCβ2; type: cell-based; settings: HEK293 over-expressing PKCβ2, 3 nM PMA, 4-h supernatants; read-out: IC50, inhibition of IL-8 production in response to PMA
Protocol: For the HEK293 cell-based assay, HEK293 cells engineered to over-express full-length PKCβ2 were stimulated with 3 nM PMA in DMEM media supplemented with 0.5% FBS. 4-h cell culture supernatants were analyzed for IL-8 by MSD (Rockville, MD).

PKCε = biological target: T1, PKCε (Homo sapiens, UniProt Q02156); experiment: Z'-Lyte recombinant enzyme assay, PKCε; type: biochemical
T1 sequence (Q02156 1-737): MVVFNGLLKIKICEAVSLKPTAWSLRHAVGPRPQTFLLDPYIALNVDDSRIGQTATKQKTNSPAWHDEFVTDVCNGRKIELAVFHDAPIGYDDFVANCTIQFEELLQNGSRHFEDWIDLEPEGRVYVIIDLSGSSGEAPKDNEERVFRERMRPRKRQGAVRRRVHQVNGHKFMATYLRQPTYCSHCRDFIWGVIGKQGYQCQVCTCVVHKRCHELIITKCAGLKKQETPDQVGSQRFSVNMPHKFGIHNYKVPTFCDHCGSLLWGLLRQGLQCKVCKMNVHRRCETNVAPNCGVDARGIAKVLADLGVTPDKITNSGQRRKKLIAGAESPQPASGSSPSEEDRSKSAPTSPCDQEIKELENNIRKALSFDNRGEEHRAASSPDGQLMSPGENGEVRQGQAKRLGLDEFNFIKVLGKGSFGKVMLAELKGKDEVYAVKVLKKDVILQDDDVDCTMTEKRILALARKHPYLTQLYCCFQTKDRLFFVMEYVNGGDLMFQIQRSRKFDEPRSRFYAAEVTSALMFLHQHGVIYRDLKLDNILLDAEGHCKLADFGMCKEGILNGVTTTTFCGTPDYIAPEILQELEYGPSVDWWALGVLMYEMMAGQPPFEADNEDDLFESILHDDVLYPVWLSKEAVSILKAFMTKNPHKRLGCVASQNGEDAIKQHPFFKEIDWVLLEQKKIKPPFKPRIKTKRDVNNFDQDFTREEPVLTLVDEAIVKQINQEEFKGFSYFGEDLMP
Protocol: as §1

[2] = biological target: PKC activity in glomerular lysates from ZSF1 obese rats; experiment: Radioactive pan-PKC kinase assay with glomerular lysates; type: biochemical, rat; settings: glomerular lysates from 20-week old ZSF1 obese rats, pan-PKC pseudo-substrate peptide
Protocol: Glomeruli were isolated using an established protocol of serially sieving minced kidney cortex tissue through mesh filters of decreasing pore size[69]. For radioactive pan-PKC assays, glomeruli were lysed in a buffer consisting of 50 mM Tris–HCl pH 8, 5 mM EDTA, 5 mM EGTA, protease and phosphatase inhibitor cocktails, 1% 2-mercaptoethanol, and 0.028% n-dodecyl-β-D-maltopyranoside (Anatrace D310) by sonication using two 10 s pulses with a probe sonicator. Supernatants were collected following centrifugation at 4 °C at 20,200 × g for 10 min. A 25 μL aliquot was used in a 50 μL ^32P-ATP pan-PKC radioactive kinase assay with the pan-PKC pseudo-substrate peptide RFARKGSLRQKNV. The reaction was incubated for 10 min at 37 °C prior to filter binding and scintillation counting. Data are reported as CPM incorporation per μg of total protein in the reaction, as determined using Pierce Coomassie Plus Protein Assay of the original lysate (Pierce 23236). Where indicated, the reaction was run in the presence of increasing amounts of Cmpd 1.

PKCα/β = experiment: In vivo kinase occupancy profiling of spleens (probe-based chemoproteomics); set-up: species or system rat; settings: Cmpd 1 chow-dosed ZSF1 obese rats; only PKCα/β from over 200 detectable kinases
Protocol: In vivo kinase profiling Spleens from 22–23 week old ZSF1 obese male rats provided no drug Chow or Cmpd 1 chow (n = 2 each) were snap frozen, pulverized, and approximately 100–150 mg of each sample were sent to ActiveX for analysis using a probe-based chemoproteomics platform to measure the fraction of kinase bound versus unbound by an ATP-competitive inhibitor. A kinase bound by an ATP-competitive inhibitor such as Cmpd 1 will be less accessible to a covalent ATP probe, and will consequently have a reduced peak in quantitative mass spectrometry of the tryptic fragment corresponding to its active site pulled down by the covalent biotinylated ATP probe. Lysates from n = 2 animals for each group were combined for the analysis.

Chain of PKCη (P24723 whole entry): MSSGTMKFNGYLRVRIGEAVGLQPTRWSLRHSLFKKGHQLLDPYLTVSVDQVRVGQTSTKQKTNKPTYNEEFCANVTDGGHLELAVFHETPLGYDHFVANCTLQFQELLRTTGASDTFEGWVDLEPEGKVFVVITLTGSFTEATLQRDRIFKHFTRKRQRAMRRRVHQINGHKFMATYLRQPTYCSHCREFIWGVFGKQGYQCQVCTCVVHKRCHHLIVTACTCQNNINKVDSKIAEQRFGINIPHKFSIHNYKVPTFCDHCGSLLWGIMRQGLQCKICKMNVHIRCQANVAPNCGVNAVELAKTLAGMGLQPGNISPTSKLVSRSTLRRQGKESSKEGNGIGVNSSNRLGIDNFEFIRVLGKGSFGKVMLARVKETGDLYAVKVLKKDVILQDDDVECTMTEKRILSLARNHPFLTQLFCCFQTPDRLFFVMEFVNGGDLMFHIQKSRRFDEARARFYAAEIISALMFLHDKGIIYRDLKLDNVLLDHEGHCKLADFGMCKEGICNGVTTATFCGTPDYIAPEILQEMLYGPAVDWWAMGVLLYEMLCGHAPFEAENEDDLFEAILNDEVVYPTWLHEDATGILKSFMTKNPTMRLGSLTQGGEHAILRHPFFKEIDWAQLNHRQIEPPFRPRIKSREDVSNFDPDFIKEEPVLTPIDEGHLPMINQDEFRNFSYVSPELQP
Chain of PKCβ1 (P05771 whole entry): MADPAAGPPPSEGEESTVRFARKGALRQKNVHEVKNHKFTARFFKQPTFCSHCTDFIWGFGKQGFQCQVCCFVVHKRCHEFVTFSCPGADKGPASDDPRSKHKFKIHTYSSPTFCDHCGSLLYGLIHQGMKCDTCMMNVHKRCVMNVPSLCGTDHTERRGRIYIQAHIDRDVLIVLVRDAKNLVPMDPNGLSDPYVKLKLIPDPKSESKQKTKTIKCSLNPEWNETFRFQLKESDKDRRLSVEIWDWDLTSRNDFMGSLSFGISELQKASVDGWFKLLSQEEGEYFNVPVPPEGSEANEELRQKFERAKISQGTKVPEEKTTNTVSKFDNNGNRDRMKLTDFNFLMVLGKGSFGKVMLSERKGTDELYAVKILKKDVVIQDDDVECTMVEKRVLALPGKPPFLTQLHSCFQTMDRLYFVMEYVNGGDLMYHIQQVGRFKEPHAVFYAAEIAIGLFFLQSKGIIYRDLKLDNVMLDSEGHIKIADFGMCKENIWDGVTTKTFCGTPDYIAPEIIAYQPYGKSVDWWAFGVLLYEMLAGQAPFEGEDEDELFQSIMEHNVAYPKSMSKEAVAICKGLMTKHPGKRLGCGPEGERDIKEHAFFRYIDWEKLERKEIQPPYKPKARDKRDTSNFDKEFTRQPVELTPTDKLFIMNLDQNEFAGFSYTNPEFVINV

With `Cc1ncc(F)c(Nc2n[nH]c3c2CN(C(=O)N2C[C@@H](C)N(CC4CCOCC4)C[C@@H]2C)C3(C)C)n1` [Cmpd 1, 5-[(2S,5R)-2,5-dimethyl-4-(tetrahydro-2H-pyran-4-ylmethyl)piperazin-l-yl]carbonyl-N-(5-fluoro-2-methylpyrimidin-4-yl)-6,6-dimethyl-1,4,5,6-tetrahydropyrrolo[3,4-c]pyrazol-3-amine] the IC50 (PKCα) was 2 nM, the Animal body weights (ZSF1 obese rats) was “decreased” and the Food consumption (ZSF1 obese rats) was “decreased”. The IC50 (PKCβ1) was 11 nM, the IC50 (PKCη) was 1520 nM and the “Selectivity against all other PKC family members” value (PKC family members) was “greater than 40 fold”. For the same compound, the IC50 [1] was 26 nM, the IC50 (PKCε) was 623 nM and the IC50 [2] was 70 nM. For the same compound, the “Kinase occupancy in spleen” value (PKCα/β) was > 90%.
